Results reported in the supplement of paper PMC13380429.

Columns and labels:
Details in all cases: 72 h
Calu-3 [1] = assay: drug sensitivity score (DSS) for viability; higher = more toxic; extreme values may be limits of the assay
Vero E6 [2] = assay: as above
U2OS [3] = assay: as above
HepG2 [4] = assay: as above
Caco-2 [5] = assay: as above
Calu-3 [6] = assay: cell viability relative to DMSO; higher = less toxic
Vero E6 [7] = assay: as above
U2OS [8] = assay: as above
HepG2 [9] = assay: as above
Caco-2 [10] = assay: as above
Calu-3 [11] = assay: relative viability EC50 (midpoint between 100% and the lowest measured viability); higher = less toxic
Vero E6 [12] = assay: as above
U2OS [13] = assay: as above
HepG2 [14] = assay: as above
Caco-2 [15] = assay: as above

Row | Structure (SMILES) | drug sensitivity score (Calu-3 [1]) | drug sensitivity score (Vero E6 [2]) | drug sensitivity score (U2OS [3]) | drug sensitivity score (HepG2 [4]) | drug sensitivity score (Caco-2 [5]) | cell viability (Calu-3 [6]; 1 nM) [%] | cell viability (Calu-3 [6]; 10 nM) [%] | cell viability (Calu-3 [6]; 100 nM) [%] | cell viability (Calu-3 [6]; 1000 nM) [%] | cell viability (Calu-3 [6]; 10000 nM) [%] | cell viability (Vero E6 [7]; 1 nM) [%] | cell viability (Vero E6 [7]; 10 nM) [%] | cell viability (Vero E6 [7]; 100 nM) [%] | cell viability (Vero E6 [7]; 1000 nM) [%] | cell viability (Vero E6 [7]; 10000 nM) [%] | cell viability (U2OS [8]; 1 nM) [%] | cell viability (U2OS [8]; 10 nM) [%] | cell viability (U2OS [8]; 100 nM) [%] | cell viability (U2OS [8]; 1000 nM) [%] | cell viability (U2OS [8]; 10000 nM) [%] | cell viability (HepG2 [9]; 1 nM) [%] | cell viability (HepG2 [9]; 10 nM) [%] | cell viability (HepG2 [9]; 100 nM) [%] | cell viability (HepG2 [9]; 1000 nM) [%] | cell viability (HepG2 [9]; 10000 nM) [%] | cell viability (Caco-2 [10]; 1 nM) [%] | cell viability (Caco-2 [10]; 10 nM) [%] | cell viability (Caco-2 [10]; 100 nM) [%] | cell viability (Caco-2 [10]; 1000 nM) [%] | cell viability (Caco-2 [10]; 10000 nM) [%] | relative viability EC50 (Calu-3 [11]) [µM] | relative viability EC50 (Vero E6 [12]) [µM] | relative viability EC50 (U2OS [13]) [µM] | relative viability EC50 (HepG2 [14]) [µM] | relative viability EC50 (Caco-2 [15]) [µM]
1 | O=C(O)/C=C/c1ccc(O)c(O)c1 [caffeic-acid] | 0 | 0 | 0 | 0 | 0 | 93.1 | 111 | 109 | 95 | 102 | 99.1 | 96.7 | 102 | 94.1 | 104 | 94 | 100 | 95.9 | 100 | 105 | 101 | 104 | 106 | 97.5 | 105 | 89 | 92.8 | 90.9 | 94.7 | 108 | > 10 | > 10 | > 10 | > 10 | > 10
2 | C[C@]12CCC(=O)C=C1C=C[C@@H]1[C@@H]2CC[C@@]2(C)[C@H]1CC[C@@]21CCC(=O)O1 [canrenone] | 0 | 0 | 0 | 0 | 0 | 102 | 111 | 98.5 | 104 | 95 | 99.3 | 106 | 101 | 104 | 101 | 101 | 101 | 93.2 | 106 | 95.8 | 106 | 94.5 | 89.1 | 95.4 | 97.5 | 96.6 | 100 | 88.4 | 99.1 | 91.7 | > 10 | > 10 | > 10 | > 10 | > 10
3 | N[C@@H](C(=O)N[C@@H]1C(=O)N2C(C(=O)O)=C(Cl)CS[C@H]12)c1ccccc1 [cefaclor] | 0 | 0 | 0 | 0 | 0 | 97.1 | 99 | 102 | 102 | 98.5 | 97 | 98.3 | 101 | 95.8 | 94.7 | 101 | 103 | 99.3 | 98 | 98.2 | 96.4 | 102 | 100 | 104 | 98.5 | 94.7 | 98 | 88.9 | 97.1 | 92.6 | > 10 | > 10 | > 10 | > 10 | > 10
4 | OC[C@@H](O)[C@H]1O[C@@H]2O[C@H](C(Cl)(Cl)Cl)O[C@@H]2[C@H]1O [chloralose] | 0 | 0 | 0 | 0 | 0 | 93.7 | 93.8 | 95.5 | 104 | 98.8 | 98.1 | 99 | 98.8 | 95.9 | 97.8 | 98.1 | 106 | 98.5 | 99.6 | 98.4 | 98.1 | 103 | 102 | 98.9 | 89.2 | 101 | 103 | 80.5 | 101 | 87.4 | > 10 | > 10 | > 10 | > 10 | > 10
5 | CC(C)NCC(O)c1ccc(N)c(C#N)c1 (stereo not given) [cimaterol] | 0 | 0 | 0 | 0 | 0 | 102 | 93.2 | 101 | 99.2 | 96.6 | 105 | 104 | 96.6 | 103 | 99.2 | 100 | 99.4 | 106 | 97 | 105 | 110 | 91.6 | 96.6 | 91.7 | 94.1 | 96 | 93.2 | 94.2 | 89.8 | 102 | > 10 | > 10 | > 10 | > 10 | > 10
6 | Clc1ccc(C(OCCN2CCCCC2)c2ccccc2)cc1 (stereo not given) [cloperastine] | 0 | 0.3 | 0 | 0.6 | 0.3 | 101 | 93.5 | 129 | 100 | 100 | 93.7 | 96.4 | 100 | 97 | 86.6 | 99.4 | 96.7 | 97.1 | 99.6 | 95.4 | 111 | 109 | 115 | 96.4 | 84.1 | 99 | 94.9 | 114 | 116 | 79.9 | > 10 | > 10 | > 10 | > 10 | > 10
7 | O=C(/C=C/c1ccc(CN(CCO)CCc2c[nH]c3ccccc23)cc1)NO [dacinostat] | 21.5 | 24.4 | 22.6 | 28.4 | 25.2 | 98.7 | 90.1 | 56.5 | 11.3 | 5.5 | 108 | 103 | 47.8 | -0.4 | -0.3 | 98.1 | 101 | 66.4 | 1.3 | 0.5 | 104 | 82 | 26.1 | -0.4 | -0.4 | 96.5 | 101 | 38.7 | 0.3 | 0.8 | 0.109 | 0.0966 | 0.131 | 0.0395 | 0.083
8 | C[C@@H]1C[C@H]2[C@@H]3CCC4=CC(=O)C=C[C@]4(C)[C@@]3(F)[C@@H](O)C[C@]2(C)[C@H]1C(=O)CO [desoximetasone] | 0 | 0 | 0 | 0 | 0 | 86.2 | 95 | 101 | 101 | 88.8 | 93 | 91.3 | 93.2 | 88.5 | 99 | 98.3 | 97.2 | 91.9 | 92.9 | 101 | 102 | 95.7 | 102 | 91.3 | 109 | 94.1 | 90.1 | 88 | 95.2 | 105 | > 10 | > 10 | > 10 | > 10 | > 10
9 | CCCCCN(CCCOC)C(=O)[C@@H](CCC(=O)O)NC(=O)c1ccc(Cl)c(Cl)c1 [dexloxiglumide] | 0 | 0 | 0 | 0 | 0.1 | 100 | 93.3 | 96.4 | 95.7 | 93 | 89.4 | 97.8 | 91.1 | 96.1 | 109 | 92.2 | 92.1 | 99.5 | 91.9 | 104 | 94.5 | 105 | 89.6 | 104 | 108 | 92.1 | 82.1 | 87.5 | 86.9 | 107 | > 10 | > 10 | > 10 | > 10 | > 10
10 | CN1C(=O)CN=C(c2ccccc2)c2cc(Cl)ccc21 [diazepam] | 0 | 0.2 | 0 | 0 | 2.2 | 110 | 92.4 | 96.6 | 98 | 110 | 97.8 | 100 | 101 | 98.6 | 86.7 | 107 | 102 | 107 | 99.6 | 103 | 94.8 | 105 | 101 | 100 | 101 | 104 | 101 | 85.6 | 87.6 | 96 | > 10 | > 10 | > 10 | > 10 | > 10
11 | NS(=O)(=O)c1cc(Cl)c(Cl)c(S(N)(=O)=O)c1 [diclofenamide] | 0 | 0 | 0 | 0 | 0 | 88.2 | 81.4 | 87.1 | 91 | 88.9 | 95.8 | 102 | 96 | 99.1 | 95.3 | 102 | 98 | 106 | 98.7 | 105 | 97.6 | 103 | 100 | 97 | 101 | 102 | 104 | 112 | 104 | 98.9 | > 10 | > 10 | > 10 | > 10 | > 10
12 | C/C=C(/C(=C/C)c1ccc(O)cc1)c1ccc(O)cc1 [dienestrol] | 0 | 0 | 0 | 0 | 0 | 98.1 | 91.4 | 92.4 | 84 | 95.7 | 101 | 107 | 101 | 104 | 94.3 | 106 | 108 | 107 | 99.9 | 109 | 101 | 100 | 98.4 | 110 | 95.3 | 112 | 96.5 | 105 | 106 | 102 | > 10 | > 10 | > 10 | > 10 | > 10
13 | CC/C=C\C/C=C\C/C=C\C/C=C\C/C=C\C/C=C\CCC(=O)OCC [doconexent-ethyl-ester] | 0 | 0 | 0 | 0 | 0 | 99.1 | 104 | 104 | 103 | 108 | 99.5 | 101 | 98.9 | 102 | 102 | 93.6 | 96.9 | 97.3 | 103 | 99.8 | 100 | 98.9 | 87.1 | 107 | 87.2 | 96.9 | 108 | 96.1 | 96.5 | 100 | > 10 | > 10 | > 10 | > 10 | > 10
14 | Cn1cc(C2=C(c3cn(C4CCN(Cc5ccccn5)CC4)c4ccccc34)C(=O)NC2=O)c2ccccc21 [enzastaurin] | 0 | 0 | 0 | 0 | 0 | 109 | 97.3 | 118 | 108 | 109 | 101 | 107 | 103 | 105 | 98.9 | 102 | 101 | 102 | 97.4 | 101 | 105 | 113 | 94 | 98 | 106 | 98.6 | 104 | 93.2 | 98.4 | 100 | > 10 | > 10 | > 10 | > 10 | > 10
